This note sets out measurements from patent US10369139B2, “Crystalline compound as semicarbazide-sensitive amine oxidase (SSAO) enzyme inhibitor” (BENEVOLENTAI CAMBRIDGE LIMITED, priority 2015, dated 2019).

Counter-ions that a name gives are not always drawn.

What all share (format): physicochemical
The nature of series [1]: Hygroscopicity on storage at controlled temperature/relative humidity (Table 2). The source says: Crystalline mesylate salt was isolated and characterised using some or all of XRPD, ^1H NMR, DSC, TGA, GVS, IC, PLM, HSM, HPLC and KF (see Table 2).
Series [2] can be described thus: Stability during long term storage, assessed by HPLC. Particulars: double LDPE liners, desiccant pouch, heat-sealed foil bag, HDPE keg. As to the method:
Purity analysis was performed on an Agilent HP1100 series system equipped with a diode array detector and using ChemStation software vB.02.01-SR1 using the method detailed below (Table 1).
(§1) Crystalline (3S)-Tetrahydrofuran-3-yl (4S)-4-isopropyl-1,4,6,7-tetrahydro-5H-imidazo[4,5-c]pyridine-5-carboxylate mesylate was also assessed for stability and hygroscopicity when dispensed in 3 g aliquots in double LDPE liners, sealed with cable tie and placed, with a desiccant pouch into a foil bag, which was subsequently heat-sealed. The foil bag was then placed into an HDPE keg fitted with an HDPE lid. These conditions mirror typical GMP level storage conditions. Stability was assessed by HPLC and hygroscopicity was assessed by Karl Fisher (KF) titration.

Series [3] can be described thus: Hygroscopicity during long term storage, assessed by Karl Fischer titration. The settings on record: double LDPE liners, desiccant pouch, heat-sealed foil bag, HDPE keg. The method, then:
The water content of each sample was measured on a Mettler Toledo DL39 Coulometer using Hydranal Coulomat AG reagent and an argon purge. Weighed solid samples were introduced into the vessel on a platinum TGA pan which was connected to a subaseal to avoid water ingress. Approx 10 mg of sample was used per titration and duplicate determinations were made.
as §1

Where [4] appears, read: after 6 months at 40° C./75% RH.

For `CC(C)[C@H]1c2[nH]cnc2CCN1C(=O)O[C@H]1CCOC1` [Free base, (3S)-Tetrahydrofuran-3-yl (4S)-4-isopropyl-1,4,6,7-tetrahydro-5H-imidazo[4,5-c]pyridine-5-carboxylate], in series [1] (25° C./60% RH), the “Hygroscopicity (time in which the sample deliquesced)” value is listed as 25° C./60% RH in <24 h.

For the compound `CC(C)[C@H]1c2[nH]cnc2CCN1C(=O)O[C@H]1CCOC1` [Crystalline mesylate salt, (3S)-Tetrahydrofuran-3-yl (4S)-4-isopropyl-1,4,6,7-tetrahydro-5H-imidazo[4,5-c]pyridine-5-carboxylate, Methananesulfonic Acid Salt], the “Degradation (HPLC)” value in series [2] (setting [4]) and in series [2] (over 3 years at 25° C./60% RH) was 0.1% each time. Besides, the “Hygroscopicity (time after which the sample deliquesced)” value in series [1] (40° C./75% RH) came out at 3 days. The “Stability of the crystalline salt on storage (reduced hygroscopicity)” value in series [1] (temperature of 40° C., relative humidity of 75%) is listed as “up to three days”. Also, the entries for the “Water uptake (KF)” value in series [3] (setting [4]) and in series [3] (over 3 years at 25° C./60% RH) were 0.1% and “no water uptake”, respectively.
